Values belong to the compound of their own block, whether it stands above or below them.
System: K24384-001-R-PDC complex spheroid growth
Assay: Anticancer human tumor K24384-001-R-PDC patient-derived pancreatic adenocarcinoma cell line growth inhibition [AhR]
Settings: for IC50: curve of first compound; for viability, T/C: stronger effect = lower value
Method in brief: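 Spheroids combined tumor cells with HUVEC endothelial cells and human MSCs as stroma. AhR antagonists were paired with standard or investigational drugs, each dosed in half-log steps down from near clinical Cmax, or from 10 microM where Cmax was unknown.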

[1] = second compound 0.1 µM, first compound 0.0316 µM
[2] = second compound 0.1 µM, first compound 0.1 µM
[3] = second compound 0.1 µM, first compound 0.316 µM
[4] = second compound 0.1 µM, first compound 1 µM
[5] = second compound 0.1 µM, first compound 3.16 µM
[6] = second compound 0.1 µM, first compound 10 µM
[7] = second compound 0.316 µM, first compound 0.0316 µM
[8] = second compound 0.316 µM, first compound 0.1 µM
[9] = second compound 0.316 µM, first compound 0.316 µM
[10] = second compound 0.316 µM, first compound 1 µM
[11] = second compound 0.316 µM, first compound 3.16 µM
[12] = second compound 0.316 µM, first compound 10 µM
[13] = second compound 1 µM, first compound 0.0316 µM
[14] = second compound 1 µM, first compound 0.1 µM
[15] = second compound 1 µM, first compound 0.316 µM
[16] = second compound 1 µM, first compound 1 µM
[17] = second compound 1 µM, first compound 3.16 µM
[18] = second compound 1 µM, first compound 10 µM
[19] = second compound 3.16 µM, first compound 0.0316 µM
[20] = second compound 3.16 µM, first compound 0.1 µM
[21] = second compound 3.16 µM, first compound 0.316 µM
[22] = second compound 3.16 µM, first compound 1 µM
[23] = second compound 3.16 µM, first compound 3.16 µM
[24] = second compound 3.16 µM, first compound 10 µM
[25] = second compound 10 µM, first compound 0.0316 µM
[26] = second compound 10 µM, first compound 0.1 µM
[27] = second compound 10 µM, first compound 0.316 µM
[28] = second compound 10 µM, first compound 1 µM
[29] = second compound 10 µM, first compound 3.16 µM
[30] = second compound 10 µM, first compound 10 µM
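For viability, T/C in this document: percent of DMSO vehicle-treated spheroid viability set as 100%.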

SMILES: CC(C)c1c(-c2ccccc2)nc2c(C#N)c[nH]n2c1=O + CC(CO)NC(=O)c1cc(-c2ccc(Cl)cc2)nn(-c2cnn(C)c2)c1=O
- IC50 (second compound 0.1 µM): > 10000 nM
- IC50 (second compound 0.316 µM): > 10000 nM
- IC50 (second compound 1 µM): > 10000 nM
- IC50 (second compound 3.16 µM): > 10000 nM
- IC50 (second compound 10 µM): > 10000 nM
- viability, T/C [1]: 118%
- viability, T/C [2]: 122%
- viability, T/C [3]: 76.2%
- viability, T/C [4]: 99.7%
- viability, T/C [5]: 92.2%
- viability, T/C [6]: 80.8%
- viability, T/C [7]: 116%
- viability, T/C [8]: 107%
- viability, T/C [9]: 89.4%
- viability, T/C [10]: 96.8%
- viability, T/C [11]: 73%
- viability, T/C [12]: 78.3%
- viability, T/C [13]: 92.7%
- viability, T/C [14]: 80%
- viability, T/C [15]: 94.2%
- viability, T/C [16]: 64.7%
- viability, T/C [17]: 72.1%
- viability, T/C [18]: 72.8%
- viability, T/C [19]: 63.2%
- viability, T/C [20]: 75.1%
- viability, T/C [21]: 79.8%
- viability, T/C [22]: 64%
- viability, T/C [23]: 68.7%
- viability, T/C [24]: 63.5%
- viability, T/C [25]: 77.5%
- viability, T/C [26]: 74.4%
- viability, T/C [27]: 62.5%
- viability, T/C [28]: 60.6%
- viability, T/C [29]: 52.3%
- viability, T/C [30]: 61.6%

SMILES: O=C(C=Cn1cnc(-c2cc(C(F)(F)F)cc(C(F)(F)F)c2)n1)NNc1cnccn1 + CC(CO)NC(=O)c1cc(-c2ccc(Cl)cc2)nn(-c2cnn(C)c2)c1=O
- IC50 (second compound 0.1 µM): 280 nM
- IC50 (second compound 0.316 µM): 298 nM
- IC50 (second compound 1 µM): 246 nM
- IC50 (second compound 3.16 µM): 236 nM
- IC50 (second compound 10 µM): 212 nM
- viability, T/C (second compound 0.1 µM, first compound 0.00949 µM): 107%
- viability, T/C (second compound 0.1 µM, first compound 0.03 µM): 108%
- viability, T/C (second compound 0.1 µM, first compound 0.0949 µM): 80.1%
- viability, T/C (second compound 0.1 µM, first compound 0.3 µM): 48.7%
- viability, T/C (second compound 0.1 µM, first compound 0.949 µM): 34.1%
- viability, T/C (second compound 0.1 µM, first compound 3 µM): 28.1%
- viability, T/C (second compound 0.316 µM, first compound 0.00949 µM): 102%
- viability, T/C (second compound 0.316 µM, first compound 0.03 µM): 99.3%
- viability, T/C (second compound 0.316 µM, first compound 0.0949 µM): 74.8%
- viability, T/C (second compound 0.316 µM, first compound 0.3 µM): 52%
- viability, T/C (second compound 0.316 µM, first compound 0.949 µM): 30.5%
- viability, T/C (second compound 0.316 µM, first compound 3 µM): 26.6%
- viability, T/C (second compound 1 µM, first compound 0.00949 µM): 86.1%
- viability, T/C (second compound 1 µM, first compound 0.03 µM): 102%
- viability, T/C (second compound 1 µM, first compound 0.0949 µM): 72.1%
- viability, T/C (second compound 1 µM, first compound 0.3 µM): 46.5%
- viability, T/C (second compound 1 µM, first compound 0.949 µM): 33.4%
- viability, T/C (second compound 1 µM, first compound 3 µM): 28.6%
- viability, T/C (second compound 3.16 µM, first compound 0.00949 µM): 77.8%
- viability, T/C (second compound 3.16 µM, first compound 0.03 µM): 94.3%
- viability, T/C (second compound 3.16 µM, first compound 0.0949 µM): 79.6%
- viability, T/C (second compound 3.16 µM, first compound 0.3 µM): 41.8%
- viability, T/C (second compound 3.16 µM, first compound 0.949 µM): 29.6%
- viability, T/C (second compound 3.16 µM, first compound 3 µM): 23.3%
- viability, T/C (second compound 10 µM, first compound 0.00949 µM): 76.2%
- viability, T/C (second compound 10 µM, first compound 0.03 µM): 82.3%
- viability, T/C (second compound 10 µM, first compound 0.0949 µM): 70.7%
- viability, T/C (second compound 10 µM, first compound 0.3 µM): 41%
- viability, T/C (second compound 10 µM, first compound 0.949 µM): 29.3%
- viability, T/C (second compound 10 µM, first compound 3 µM): 27.3%

The next lines start with results.

- IC50 (second compound 0.1 µM): 115 nM
- IC50 (second compound 0.316 µM): 91 nM
- IC50 (second compound 1 µM): 94.7 nM
- IC50 (second compound 3.16 µM): 54.6 nM
- IC50 (second compound 10 µM): 52.5 nM
SMILES: CC1COCCN1c1cc(-c2ccnn2C)c2ccnc(-c3ccn[nH]3)c2n1 (stereo not given) + CC(CO)NC(=O)c1cc(-c2ccc(Cl)cc2)nn(-c2cnn(C)c2)c1=O
- viability, T/C (second compound 0.1 µM, first compound 0.00316 µM): 105%
- viability, T/C (second compound 0.1 µM, first compound 0.01 µM): 93.7%
- viability, T/C [1]: 80.8%
- viability, T/C [2]: 51.7%
- viability, T/C [3]: 33%
- viability, T/C [4]: 26.4%
- viability, T/C (second compound 0.316 µM, first compound 0.00316 µM): 111%
- viability, T/C (second compound 0.316 µM, first compound 0.01 µM): 118%
- viability, T/C [7]: 75.5%
- viability, T/C [8]: 50.9%
- viability, T/C [9]: 32.3%
- viability, T/C [10]: 24.3%
- viability, T/C (second compound 1 µM, first compound 0.00316 µM): 94%
- viability, T/C (second compound 1 µM, first compound 0.01 µM): 121%
- viability, T/C [13]: 86.4%
- viability, T/C [14]: 49%
- viability, T/C [15]: 28%
- viability, T/C [16]: 21.3%
- viability, T/C (second compound 3.16 µM, first compound 0.00316 µM): 73.1%
- viability, T/C (second compound 3.16 µM, first compound 0.01 µM): 74.8%
- viability, T/C [19]: 64.2%
- viability, T/C [20]: 34.2%
- viability, T/C [21]: 23.7%
- viability, T/C [22]: 25.2%
- viability, T/C (second compound 10 µM, first compound 0.00316 µM): 85.8%
- viability, T/C (second compound 10 µM, first compound 0.01 µM): 79.2%
- viability, T/C [25]: 60.1%
- viability, T/C [26]: 37.7%
- viability, T/C [27]: 27.2%
- viability, T/C [28]: 28.4%

- IC50 (second compound 0.1 µM): > 10000 nM
- IC50 (second compound 0.316 µM): 3120 nM
- IC50 (second compound 1 µM): 9450 nM
- IC50 (second compound 3.16 µM): 3590 nM
- IC50 (second compound 10 µM): > 10000 nM
SMILES: CC1COCCN1c1cc(C2(S(C)(=N)=O)CC2)nc(-c2ccnc3[nH]ccc23)n1 (stereo not given) + CC(CO)NC(=O)c1cc(-c2ccc(Cl)cc2)nn(-c2cnn(C)c2)c1=O
- viability, T/C [1]: 113%
- viability, T/C [2]: 128%
- viability, T/C [3]: 133%
- viability, T/C [4]: 77.7%
- viability, T/C [5]: 55.8%
- viability, T/C [6]: 42.8%
- viability, T/C [7]: 136%
- viability, T/C [8]: 133%
- viability, T/C [9]: 136%
- viability, T/C [10]: 84.2%
- viability, T/C [11]: 52.7%
- viability, T/C [12]: 46.2%
- viability, T/C [13]: 142%
- viability, T/C [14]: 139%
- viability, T/C [15]: 136%
- viability, T/C [16]: 103%
- viability, T/C [17]: 66.5%
- viability, T/C [18]: 48.6%
- viability, T/C [19]: 125%
- viability, T/C [20]: 96.8%
- viability, T/C [21]: 132%
- viability, T/C [22]: 96.4%
- viability, T/C [23]: 53.1%
- viability, T/C [24]: 40.6%
- viability, T/C [25]: 122%
- viability, T/C [26]: 125%
- viability, T/C [27]: 130%
- viability, T/C [28]: 107%
- viability, T/C [29]: 64%
- viability, T/C [30]: 53.9%

- IC50 (second compound 0.1 µM): 7260 nM
- IC50 (second compound 0.316 µM): 3900 nM
- IC50 (second compound 1 µM): 2830 nM
- IC50 (second compound 3.16 µM): 2920 nM
- IC50 (second compound 10 µM): 1480 nM
SMILES: COc1ccc([C@@H](O)c2cc(-c3ncnc4cc(N5CCOCC5)ccc34)c(F)cc2Cl)nn1 + CC(CO)NC(=O)c1cc(-c2ccc(Cl)cc2)nn(-c2cnn(C)c2)c1=O
- viability, T/C [1]: 90.1%
- viability, T/C [2]: 82.7%
- viability, T/C [3]: 97.6%
- viability, T/C [4]: 75.7%
- viability, T/C [5]: 69.2%
- viability, T/C [6]: 43%
- viability, T/C [7]: 103%
- viability, T/C [8]: 99.5%
- viability, T/C [9]: 85.2%
- viability, T/C [10]: 67.6%
- viability, T/C [11]: 55.1%
- viability, T/C [12]: 37%
- viability, T/C [13]: 86.6%
- viability, T/C [14]: 90%
- viability, T/C [15]: 81.1%
- viability, T/C [16]: 66.3%
- viability, T/C [17]: 49%
- viability, T/C [18]: 35.8%
- viability, T/C [19]: 74.5%
- viability, T/C [20]: 69.7%
- viability, T/C [21]: 80.4%
- viability, T/C [22]: 66%
- viability, T/C [23]: 49.2%
- viability, T/C [24]: 33.8%
- viability, T/C [25]: 71.3%
- viability, T/C [26]: 75.2%
- viability, T/C [27]: 68.2%
- viability, T/C [28]: 52.1%
- viability, T/C [29]: 42.5%
- viability, T/C [30]: 28.9%

— PubChem BioAssay AID1919009 (Molecular Pharmacology Branch, DTP, NCI, 2023)
